Laboratory results as given in ChEMBL document CHEMBL3272202, “Synthesis and pharmacological activity of some N-alkyl-substituted 9alpha-ethyl-2'-hydroxy-5-methyl-6,7-benzomorphans” (J Med Chem, 1977).
Activity calls are given as the source filed them. The rule behind the calls is not given here.

What was measured:
Rattus norvegicus [1] = assay: Narcotic antagonist activity in rat at 10 mg/kg, sc by tail-flick test; assay type: functional; set-up: scale not given: the % may be the effect or the level left
Mus musculus [2] = assay: Narcotic analgesic activity in mouse at 5 to 10 mg/kg, sc by Nilsen test; assay type: functional, organism-based
Mus musculus [3] = assay: Toxicity in mouse at 5 to 10 mg/kg, sc; assay type: organism-based; set-up: dose 5-10 mg/kg, route subcutaneous; conditions: in vivo
Rhesus monkey [4] = assay: Narcotic antagonist activity in morphine-dependent monkey by single dose suppression test; assay type: functional, organism-based; conditions: Macaca mulatta
Rhesus monkey [5] = assay: Narcotic antagonist activity in morphine-dependent monkey by precipitated withdrawl test; assay type: functional, organism-based; conditions: Macaca mulatta
Mus musculus [6] = assay: Narcotic analgesic activity in sc dosed mouse by hot-plate test; assay type: functional
Mus musculus [7] = assay: Narcotic analgesic activity in sc dosed mouse assessed as suppression of phenylquinone-induced writhing; assay type: functional
Rattus norvegicus [8] = assay: Narcotic antagonist activity in sc dosed rat by tail-flick test; assay type: functional
Rattus norvegicus [9] = assay: Narcotic analgesic activity in sc dosed rat by tail-flick test; assay type: functional
Mus musculus [10] = assay: Narcotic analgesic activity in mouse assessed as suppression of phenylquinone-induced writhing at 30 mg/kg, sc relative to control; assay type: functional; conditions: route subcutaneous
Rhesus monkey [11] = assay: Toxicity in morphine-dependent monkey assessed as morphine substitution measured during single dose suppression test; assay type: organism-based, Macaca mulatta; conditions: in vivo
Rhesus monkey [12] = assay: Toxicity in morphine-dependent monkey assessed as morphine substitution measured during precipitated withdrawl test; assay type: organism-based, Macaca mulatta; conditions: in vivo
Rattus norvegicus [13] = assay: Narcotic antagonist activity in rat at 1 to 10 mg/kg, sc by tail-flick test; assay type: functional, organism-based
Mus musculus [14] = assay: Narcotic analgesic activity in sc dosed mouse by Nilsen test; assay type: functional
Rhesus monkey [15] = assay: Toxicity in morphine-dependent monkey assessed as precipitation of abstinence signs; assay type: organism-based, Macaca mulatta; conditions: in vivo
Rhesus monkey [16] = assay: Toxicity in morphine-dependent monkey assessed as depression of central nervous system in presence of naloxone; assay type: organism-based, Macaca mulatta; conditions: in vivo
Rhesus monkey [17] = assay: Toxicity in morphine-dependent monkey assessed as depression of central nervous system in presence of nalorphine; assay type: organism-based, Macaca mulatta; conditions: in vivo
Mus musculus [18] = assay: Narcotic analgesic activity in mouse assessed as suppression of phenylquinone-induced writhing at 10 mg/kg, sc relative to control; assay type: functional; conditions: route subcutaneous
Mus musculus [19] = assay: Toxicity in mouse assessed as hyperactivity at 3 to 10 mg/kg, sc; assay type: organism-based; set-up: dose 3-10 mg/kg, route subcutaneous; conditions: in vivo
Mus musculus [20] = assay: Toxicity in mouse assessed as ataxia at 3 to 10 mg/kg, sc; assay type: organism-based; set-up: dose 3-10 mg/kg, route subcutaneous; conditions: in vivo
Mus musculus [21] = assay: Narcotic analgesic activity in mouse at 10 to 40 mg/kg, sc by Nilsen test; assay type: functional, organism-based
Mus musculus [22] = assay: Narcotic analgesic activity in mouse at 50 mg/kg, sc by Nilsen test; assay type: functional, organism-based; set-up: dose 50 mg/kg
Rhesus monkey [23] = assay: Toxicity in morphine-dependent monkey assessed as depression of central nervous system; assay type: organism-based, Macaca mulatta; conditions: in vivo
Rhesus monkey [24] = assay: Toxicity in morphine-dependent monkey assessed as motor incoordination; assay type: organism-based, Macaca mulatta; conditions: in vivo
Rhesus monkey [25] = assay: Toxicity in morphine-dependent monkey assessed as convulsion; assay type: organism-based, Macaca mulatta; conditions: in vivo
Rattus norvegicus [26] = assay: Narcotic analgesic activity in rat at 30 mg/kg, sc by tail-flick test relative to control; assay type: functional
Mus musculus [27] = assay: Narcotic analgesic activity in mouse at 100 mg/kg, sc by hot-plate test; assay type: functional, organism-based; set-up: dose 100 mg/kg
Mus musculus [28] = assay: Narcotic analgesic activity in mouse at 20 to 50 mg/kg, sc by hot-plate test; assay type: functional, organism-based
Rattus norvegicus [29] = assay: Narcotic antagonist activity in rat at 30 mg/kg, sc by tail-flick test relative to control; assay type: functional; set-up: scale not given: the % may be the effect or the level left
Mus musculus [30] = assay: Toxicity in mouse at 50 mg/kg, sc; assay type: organism-based; set-up: dose 50 mg/kg, route subcutaneous; conditions: in vivo
Mus musculus [31] = assay: Narcotic analgesic activity in mouse at 20 mg/kg, sc by Nilsen test; assay type: functional, organism-based; set-up: dose 20 mg/kg
Mus musculus [32] = assay: Narcotic analgesic activity in mouse at 50 mg/kg by hot-plate test; assay type: functional, organism-based; set-up: dose 50 mg/kg
Rhesus monkey [33] = assay: Toxicity in morphine-dependent monkey assessed as morphine substitution at 2.5 to 20 mg/kg measured during single dose suppression test; assay type: organism-based, Macaca mulatta; set-up: dose 2.5-20 mg/kg; conditions: in vivo
Rhesus monkey [34] = assay: Toxicity in morphine-dependent monkey assessed as morphine substitution at 2.5 to 20 mg/kg measured during precipitated withdrawl test; assay type: organism-based, Macaca mulatta; set-up: dose 2.5-20 mg/kg; conditions: in vivo

CC[C@H]1[C@H]2Cc3ccc(O)cc3[C@@]1(C)CCN2CC1CC1 (racemic)
Activity (Rattus norvegicus [1]; route subcutaneous): 12%
Activity (Mus musculus [2]): inactive
Activity (Mus musculus [3]): Toxic
Activity (Rhesus monkey [4]): Active
Activity (Rhesus monkey [5]): Active
ED50 (Mus musculus [6]): inactive
ED50 (Mus musculus [7]): 2.1 mg/kg
AD50 (Rattus norvegicus [8]): 0.19 mg/kg

CCCCCCCN1CC[C@]2(C)c3cc(O)ccc3C[C@@H]1[C@@H]2CC (racemic)
ED50 (Mus musculus [6]): 9.9 mg/kg
ED50 (Rattus norvegicus [9]): 14 mg/kg
ED50 (Mus musculus [7]): 7.3 mg/kg
AD50 (Rattus norvegicus [8]): inactive

CC[C@H]1[C@H]2Cc3ccc(O)cc3[C@@]1(C)CCN2CC (racemic)
inhibition in vivo at 30 mg/kg (Mus musculus [10]): 27%
ED50 (Mus musculus [6]): 21.3 mg/kg
ED50 (Rattus norvegicus [9]): inactive
AD50 (Rattus norvegicus [8]): 5.5 mg/kg

CC[C@H]1[C@H]2Cc3ccc(O)cc3[C@@]1(C)CCN2C (racemic)
Activity (Rhesus monkey [11]): Toxic
Activity (Rhesus monkey [12]): Toxic
ED50 (Mus musculus [6]): 1.3 mg/kg
Activity (Rattus norvegicus [13]): inactive
ED50 (Rattus norvegicus [9]): 6.4 mg/kg
ED50 (Mus musculus [7]): 0.2 mg/kg

CC[C@H]1[C@H]2Cc3ccc(O)cc3[C@@]1(C)CCN2CC1CCC1 (racemic)
ED50 (Mus musculus [14]): 2.9 mg/kg
Activity (Rattus norvegicus [1]): inactive
Activity (Rhesus monkey [15]): Toxic
Activity (Rhesus monkey [16]): Non-toxic
Activity (Rhesus monkey [17]): Toxic
ED50 (Mus musculus [6]): 1.8 mg/kg
ED50 (Mus musculus [7]): 0.31 mg/kg
AD50 (Rattus norvegicus [8]): 0.477 mg/kg

CCCN1CC[C@]2(C)c3cc(O)ccc3C[C@@H]1[C@@H]2CC (racemic)
ED50 (Mus musculus [6]): inactive
ED50 (Rattus norvegicus [9]): inactive
AD50 (Rattus norvegicus [8]): 0.7 mg/kg
Activity (Mus musculus [18]): 55%
Activity (Mus musculus [19]): Toxic
Activity (Mus musculus [20]): Toxic
Activity (Mus musculus [21]): inactive

CN1CC[C@]23c4c5ccc(O)c4O[C@H]2[C@@H](O)C=C[C@H]3[C@H]1C5 [MORPHINE]
ED50 (Mus musculus [14]): 0.8 mg/kg
ED50 (Mus musculus [6]): 1.2 mg/kg
ED50 (Rattus norvegicus [9]): 5.34 mg/kg
AD50 (Rattus norvegicus [8]): inactive

C=CCCCN1CC[C@]2(C)c3cc(O)ccc3C[C@@H]1[C@@H]2CC (racemic)
Activity (Mus musculus [22]): inactive
Activity (Rhesus monkey [23]): Toxic
Activity (Rhesus monkey [24]): Toxic
Activity (Rhesus monkey [25]): Toxic
Activity (Rhesus monkey [15]): Toxic
inhibition (Rattus norvegicus [26]): inactive
ED50 (Mus musculus [7]): 2.56 mg/kg
AD50 (Rattus norvegicus [8]): 1.18 mg/kg
Activity (Mus musculus [27]): inactive

CCCCCCCCN1CC[C@]2(C)c3cc(O)ccc3C[C@@H]1[C@@H]2CC (racemic)
ED50 (Mus musculus [6]): inactive
ED50 (Rattus norvegicus [9]): inactive
ED50 (Mus musculus [7]): 15.1 mg/kg
AD50 (Rattus norvegicus [8]): inactive

C=CCN1CC[C@]2(C)c3cc(O)ccc3C[C@@H]1[C@@H]2CC (racemic)
Activity (Rhesus monkey [4]): Active
Activity (Rhesus monkey [5]): Active
inhibition (Rattus norvegicus [26]): inactive
ED50 (Mus musculus [7]): 15.7 mg/kg
AD50 (Rattus norvegicus [8]): 0.6 mg/kg
Activity (Mus musculus [28]): inactive

CCCCCN1CC[C@]2(C)c3cc(O)ccc3C[C@@H]1[C@@H]2CC (racemic)
ED50 (Mus musculus [6]): 4.2 mg/kg
Activity (Rattus norvegicus [29]; route subcutaneous): 39%
ED50 (Rattus norvegicus [9]): 28.1 mg/kg
ED50 (Mus musculus [7]): 1.8 mg/kg
AD50 (Rattus norvegicus [8]): inactive

CCCCN1CC[C@]2(C)c3cc(O)ccc3C[C@@H]1[C@@H]2CC (racemic)
inhibition (Rattus norvegicus [26]): inactive
ED50 (Mus musculus [6]): inactive
ED50 (Mus musculus [7]): 13 mg/kg
AD50 (Rattus norvegicus [8]): 2.38 mg/kg
Activity (Mus musculus [30]): Toxic
Activity (Mus musculus [31]): inactive
Activity (Mus musculus [32]): inactive

C=CCN1CC[C@]23c4c5ccc(O)c4O[C@H]2C(=O)CC[C@@]3(O)[C@H]1C5
Activity (Rhesus monkey [4]): Active
Activity (Rhesus monkey [5]): Active

CCCCCCN1CC[C@]2(C)c3cc(O)ccc3C[C@@H]1[C@@H]2CC (racemic)
Activity (Rhesus monkey [33]): Non-toxic
Activity (Rhesus monkey [34]): Non-toxic
ED50 (Mus musculus [6]): 6.2 mg/kg
Activity (Rattus norvegicus [29]): inactive
ED50 (Rattus norvegicus [9]): 18.7 mg/kg
ED50 (Mus musculus [7]): 5.7 mg/kg

CC[C@H]1[C@H]2Cc3ccc(O)cc3[C@@]1(C)CCN2CC=C(C)C (racemic)
ED50 (Mus musculus [14]): 26.8 mg/kg
ED50 (Mus musculus [6]): 8.9 mg/kg
ED50 (Rattus norvegicus [9]): inactive
AD50 (Rattus norvegicus [8]): 3.1 mg/kg
Activity (Mus musculus [18]): 36%

CC[C@H]1[C@H]2Cc3ccc(O)cc3[C@@]1(C)CCN2 (racemic)
inhibition in vivo at 30 mg/kg (Rattus norvegicus [26]; route subcutaneous): 37%
inhibition in vivo at 30 mg/kg (Mus musculus [10]): 45%
ED50 (Mus musculus [6]): inactive
Activity (Rattus norvegicus [29]): inactive

C=CCN1CC[C@]23c4c5ccc(O)c4O[C@H]2[C@@H](O)C=C[C@H]3[C@H]1C5 [NALORPHINE]
ED50 (Mus musculus [14]): 4.8 mg/kg
Activity (Rhesus monkey [4]): Active
Activity (Rhesus monkey [5]): Active
ED50 (Mus musculus [6]): 36.3 mg/kg
Activity (Rattus norvegicus [13]): inactive
